Test [1] concerns Escherichia coli. In words: In vitro broth microdilution, 24-hour minimal inhibitory concentration (MIC). Format: cell-based. The settings on record: Mueller-Hinton broth; for MIC: read-out: Minimum Inhibitory Concentration. From the text:
(§1) A standard microdilution method (National Committee for Clinical Standards. Tentative standard M7-T. Standard methods for dilution antimicrobial susceptibility tests for bacteria that grow aerobically. National Committee for Clinical Laboratory Standards, Villanova, Pa. 1982) with Mueller-Hinton broth is used to determine the 24-hour minimal inhibitory concentrations (MIC's) for test strains of Staphylococcus aureus and Escherichia coli.
For orientation: In broth dilution the organism is exposed to a series of concentrations in liquid medium.

The subject of test [2] is Staphylococcus aureus. Described as above. Format: cell-based. Particulars: Mueller-Hinton broth; for MIC: read-out: Minimum Inhibitory Concentration.
From the text: as §1

Test [3] has as its system Staphylococcus aureus. In words: In vivo activity against Staphylococcus aureus in an acute lethal mouse model. The settings on record: mice infected intraperitoneally, dosed 1 h and 4 h post-infection, survivors on seventh day. As for the experimental part: The in vivo potency of these compounds is exemplified by the data summarized in Table X. Determinations of in vivo efficacy are performed by inoculating mice intraperitoneally with cultures of the infecting organism diluted to produce 100% mortality in control animals within twenty-four hours. The culture of S. aureus used to infect the animals was diluted to the required bacterial density using 5% aqueous hog gastric mucin. The compounds are dissolved or suspended in 0.25% aqueous Methocel® (Methocel®: Hydroxypropyl Methylcullulose, E15 Premium, Dow Chemical Company) for oral administration or sterile distilled water containing 5% dimethylsulfoxide (Fisher Scientific Company, Fairlawn, N.J.) for subcutaneous administration. The mice are dosed at one hour and at four hours post-infection. Mortality is recorded daily until test determination seven days post infection. The number of survivors in each treatment group on the seventh day after infection is used in the calculation of the ED50, the dose of compound that protects 50% of the mice (Litchfield,J. T. and Wildoxon. A simulated method for evaluating dose-effect experiments. J. Pharmacol Exp. Ther., 98:99-113, 1949).

The mark [4] stands for this setting: Staphylococcus aureus, 168 h, Oral Administration, read-out: ED50.
[5] abbreviates: Staphylococcus aureus, sc, 168 h, Subcutaneous Administration, read-out: ED50.

≈ marks a conversion by molar mass, not a printed value. Like-named read-outs stand apart in the source and are kept apart here.

The ED50 is the dose that gives a 50% effect, or the effect in half of the subjects.

Turning to `CC(=O)NC[C@H]1CN(c2ccc(-c3ccc(C(=O)CCN4CCN(C)CC4)cc3)cc2)C(=O)O1` [Example 60], the MIC in test [1] is over 128 µg/mL; in test [2], 1 µg/mL (≈ 2.15 µM). Moreover, the results for the median effective dose (ED50) in test [3] (setting [4]) and in test [3] (setting [5]) were 30 mg/kg and 5.5 mg/kg, respectively.
In the same order, the values of `CC(=O)NC[C@H]1CN(c2ccc(-c3ccc(C(O)CCN(C)C)cc3)cc2)C(=O)O1` (single isomer, unassigned) [Example 58, (l)-N-[3-(4-(4'-(3-N,N-Dimethylamino-1-hydroxypropyl)phenyl)phenyl)-2-oxooxazolidin-5-ylmethyl]acetamide] are over 128 µg/mL, 1 µg/mL (≈ 2.43 µM), 13.8 mg/kg and 2 mg/kg.
Regarding `C=C(C)C(=O)c1ccc(-c2ccc(N3C[C@H](CNC(C)=O)OC3=O)cc2)cc1` [Example 63], the MIC in test [1] was over 128 µg/mL; in test [2] it was 0.25 µg/mL (≈ 0.661 µM). Also, the 50% effective dose (ED50) in test [3] (setting [4]) and in test [3] (setting [5]) was over 90 mg/kg throughout.
On to `CC(=O)NC[C@H]1CN(c2ccc(-c3ccc(I)cc3)cc2)C(=O)O1` [Example 20, (l)-N-[3-(4-(4'-Iodophenyl)phenyl)-2-oxooxazolidin-5-ylmethyl]acetamide], for which the MIC in test [1] is over 128 µg/mL; in test [2] it was 8 µg/mL (≈ 18.3 µM). Moreover, the 50% effective dose (ED50) in test [3] (setting [4]) and in test [3] (setting [5]) was over 90 mg/kg in each case.
As to `CC(=O)NC[C@H]1CN(c2ccc(-c3ccc(-c4nn[nH]n4)cc3)cc2)C(=O)O1` [Example 38, (l)-N-[3-(4-(4'-(5-Tetrazolyl)phenyl)phenyl)-2-oxooxazolidin-5-ylmethyl]acetamide], the MIC was over 128 µg/mL in test [1] and 64 µg/mL (≈ 169 µM) in test [2]. For the same compound, the ED50 in test [3] (setting [5]) is over 90 mg/kg.
Consider `CCN(CC)Cc1ccc(-c2ccc(N3C[C@H](CNC(C)=O)OC3=O)cc2)cc1` [Example 43, (l)-N-[3-(4-(4'-diethylaminomethylphenyl)phenyl)-2-oxooxazolidin-5-ylmethyl]acetamide], for which the MIC was over 128 µg/mL in test [1] and 4 µg/mL (≈ 10.1 µM) in test [2]. Moreover, the 50% effective dose (ED50) was 6.4 mg/kg in test [3] (setting [4]) and 3.7 mg/kg in test [3] (setting [5]).
In the same order, the values of `CC(=O)NC[C@H]1CN(c2ccc(-c3ccncc3)cc2)C(=O)O1` [Example 85, (l)-N-[3-(4-(4-Pyridyl)phenyl)-2-oxooxazolidin-5-ylmethyl]acetamide] are over 128 µg/mL, under 0.13 µg/mL, 1.3 mg/kg and 0.5 mg/kg.
In the same order, the values of `CC(=O)NC[C@H]1CN(c2ccc(-c3ccc(C#N)cc3)cc2)C(=O)O1` [Example 37, (l)-N-[3-(4-(4'-Cyanophenyl)phenyl)-2-oxooxazolidin-5-ylmethyl]acetamide] are over 128 µg/mL, 0.25 µg/mL (≈ 0.745 µM), under 1.2 mg/kg and 0.6 mg/kg.
In the same order, the values of `CC(=O)NC[C@H]1CN(c2ccc(-c3ccno3)cc2)C(=O)O1` [Example 130, (l)-N-[3-[4-(5-Isoxazolyl)phenyl]-2-oxooxazolidin-5-ylmethyl]acetamide] are over 128 µg/mL, 1 µg/mL (≈ 3.32 µM), 6 mg/kg and 6 mg/kg.
Regarding `CC(=O)NC[C@H]1CN(c2ccc(-c3ccccn3)cc2)C(=O)O1` [Example 86], the MIC in test [1] was over 128 µg/mL; in test [2], 2 µg/mL (≈ 6.42 µM). In addition, the ED50 in test [3] (setting [5]) worked out at 15.5 mg/kg.
As to `CC(=O)NC[C@H]1CN(c2ccc(-c3cnco3)cc2)C(=O)O1` [Example 136], the MIC in test [1] is over 128 µg/mL; in test [2] it was 1 µg/mL (≈ 3.32 µM). Moreover, the ED50 in test [3] (setting [4]) worked out at 14.8 mg/kg; in test [3] (setting [5]), 51.9 mg/kg.
In the same order, the values of `CC(=O)NC[C@H]1CN(c2ccc(-c3ccc(C(=O)C(C)CN4CCN(C)CC4)cc3)cc2)C(=O)O1` (some centres unmarked) [Example 62] are over 128 µg/mL, 2 µg/mL (≈ 4.18 µM), 51.9 mg/kg and 10 mg/kg.
Regarding `CCCCCCCCNCc1ccc(-c2ccc(N3C[C@H](CNC(C)=O)OC3=O)cc2)cc1` [Example 49], the results for the MIC in test [1] and in test [2] were over 128 µg/mL and 1 µg/mL (≈ 2.21 µM), respectively. In addition, the ED50 was 65.2 mg/kg in test [3] (setting [4]) and over 90 mg/kg in test [3] (setting [5]).
With `CC(=O)NC[C@H]1CN(c2ccc(-c3cccc[n+]3[O-])cc2)C(=O)O1` [Example 87], the MIC in test [1] is over 128 µg/mL; in test [2], 32 µg/mL (≈ 97.8 µM). Moreover, the values for the ED50 in test [3] (setting [4]) and in test [3] (setting [5]) were 16.1 mg/kg and 9.8 mg/kg, respectively.
On to `CCCCNCc1ccc(-c2ccc(N3C[C@H](CNC(C)=O)OC3=O)cc2)cc1` [Example 45], for which the MIC in test [1] was over 128 µg/mL; in test [2] it was 0.5 µg/mL (≈ 1.26 µM). Besides, the ED50 in test [3] (setting [5]) came out at 13.9 mg/kg.
With `CC(=O)NC[C@H]1CN(c2ccc(-c3ccc(C(=O)CCl)cc3)cc2)C(=O)O1` [Example 8], the MIC is over 128 µg/mL in test [1] and under 0.13 µg/mL in test [2]. Further, the ED50 in test [3] (setting [4]) and in test [3] (setting [5]) was over 90 mg/kg each time.
Take `CCc1ccc(-c2ccc(N3C[C@H](CNC(C)=O)OC3=O)cc2)cc1` [Example 114, (l)-N-[3-(4-(4'-Ethylphenyl)phenyl)-2-oxooxazolidin-5-ylmethyl]acetamide]: the MIC in test [1] was over 128 µg/mL; in test [2], 0.5 µg/mL (≈ 1.48 µM). The ED50 in test [3] (setting [4]) is 8.1 mg/kg; in test [3] (setting [5]), over 100 mg/kg.
Consider `CC(=O)NC[C@H]1CN(c2ccc(-c3ccc(C(O)CCN4CCOCC4)cc3)cc2)C(=O)O1` (single isomer, unassigned) [Example 59, (l)-N-[3-(4-(4'-(1-hydroxy-3-(4-morpholinyl)propyl)phenyl)phenyl)-2-oxooxazolidin-5-ylmethyl]acetamide], for which the MIC in test [1] was over 128 µg/mL; in test [2], 2 µg/mL (≈ 4.41 µM). The ED50 turned out to be 7 mg/kg in test [3] (setting [4]) and 2.7 mg/kg in test [3] (setting [5]).
With `CC(=O)NC[C@H]1CN(c2ccc(-c3cccc(N(C)C)c3)cc2)C(=O)O1` [Example 74], the MIC in test [1] was over 128 µg/mL; in test [2], 8 µg/mL (≈ 22.6 µM). The ED50 in test [3] (setting [5]) was 17.1 mg/kg.
Take `CC(=O)NCC1CN(c2ccc(-c3ccc(S(C)(=O)=O)cc3)cc2)C(=O)O1` (centres unmarked) [Example 69, (l)-N-[3-(4-(4'-Methylsulfonylphenyl)phenyl)-2-oxooxazolidin-5-ylmethyl]acetamide]: the “Minimum Inhibitory Concentration” value was over 128 µg/mL in test [1] and 0.25 µg/mL in test [2]. For the same compound, the 50% effective dose (ED50) is 4 mg/kg in test [3] (Oral Administration, 10080 min) and 1.2 mg/kg in test [3] (Subcutaneous Administration, 10080 min).
Consider `CC(=O)NC[C@H]1CN(c2ccc(-c3ccc(C(C)=NOCC(=O)O)cc3)cc2)C(=O)O1` [Example 24, (l)-N-[3-(4-(4'-(1-Carboxymethoxyliminoethyl)phenyl)phenyl)-2-oxooxazolidin-5-ylmethyl]acetamide], for which the MIC in test [1] is over 128 µg/mL; in test [2] it was 8 µg/mL (≈ 18.8 µM). Moreover, the median effective dose (ED50) in test [3] (setting [4]) and in test [3] (setting [5]) was over 90 mg/kg in each case.
In the case of `CC(=O)NC[C@H]1CN(c2ccc(-c3cccc([N+](=O)[O-])c3)cc2)C(=O)O1` [Example 119], the MIC in test [1] is over 128 µg/mL; in test [2] it was under 0.13 µg/mL. Further, the figures for the ED50 in test [3] (setting [4]) and in test [3] (setting [5]) were 6.2 mg/kg and 5 mg/kg, respectively.
For `CCCCN(CCCC)Cc1ccc(-c2ccc(N3C[C@H](CNC(C)=O)OC3=O)cc2)cc1` [Example 46], the MIC was over 128 µg/mL in test [1] and 4 µg/mL (≈ 8.86 µM) in test [2]. Moreover, in test [3] (setting [5]), the 50% effective dose (ED50) is 30 mg/kg.
On to `CC(=O)NC[C@H]1CN(c2ccc(-c3ccc(C(C)=NO)cc3)cc2)C(=O)O1` [Example 22, (l)-N-[3-(4-(4'-(1-Hydroxyiminoethyl)phenyl)phenyl)-2-oxooxazolidin-5-ylmethyl]acetamide], for which the MIC was over 128 µg/mL in test [1] and 0.25 µg/mL (≈ 0.68 µM) in test [2]. The ED50 in test [3] (setting [4]) and in test [3] (setting [5]) was over 90 mg/kg in each case.
Regarding `CC(=O)NC[C@H]1CN(c2ccc(-c3ccc(C(C)O)cc3)cc2)C(=O)O1` (single isomer, unassigned) [Example 27, (l)-N-[3-(4-(4'-(1-Hydroxyethyl)phenyl)phenyl)-2-oxooxazolidin-5-ylmethyl]acetamide], the MIC was over 128 µg/mL in test [1] and 0.5 µg/mL (≈ 1.41 µM) in test [2]. Moreover, the ED50 in test [3] (setting [4]) is 6.6 mg/kg; in test [3] (setting [5]), 7.6 mg/kg.
For the compound `CC(=O)NC[C@H]1CN(c2ccc(-c3csc(N)n3)cc2)C(=O)O1` [Example 134], the MIC in test [1] is over 128 µg/mL; in test [2] it was 8 µg/mL (≈ 24.1 µM). In addition, the 50% effective dose (ED50) in test [3] (setting [4]) is 56.5 mg/kg; in test [3] (setting [5]), 47 mg/kg.
In the same order, the values of `CC(=O)NC[C@H]1CN(c2ccc(-c3ccc(C(C)=NN4CCN(C)CC4)cc3)cc2)C(=O)O1` [Example 25, (l)-N-[3-(4-(4'-Acetylphenyl)phenyl)-2-oxooxazolidin-5-ylmethyl]acetamide 4-Methylpiperazinylhydrazone] are over 128 µg/mL, 2 µg/mL (≈ 4.45 µM), 13.9 mg/kg and 5.8 mg/kg.
Consider `CC(=O)NC[C@H]1CN(c2ccc(-c3cccnc3)cc2)C(=O)O1` [Example 88], for which the MIC in test [1] was over 128 µg/mL; in test [2], under 0.13 µg/mL. Moreover, the median effective dose (ED50) in test [3] (setting [4]) was 1.6 mg/kg; in test [3] (setting [5]), 0.5 mg/kg.

These data come from patent US5254577A, “Aminomethyloxooxazolidinyl arylbenzene derivatives useful as antibacterial agents” (The Du Pont Merck Pharmaceutical Company, priority 1992, dated 1993).
